Data taken from ChEMBL document CHEMBL4765323, “Design, synthesis, and biological evaluation of novel miconazole analogues containing selenium as potent antifungal agents” (Eur J Med Chem, 2020).
Converted amounts (≈) assume the structure as drawn.

How the values were obtained:
Format in all cases: functional
[1] = test system: Pichia kudriavzevii; assay: Antifungal activity against Candida krusei AS 2.1045 measured after 24 hrs by micro-broth dilution assay
[2] = test system: Candida albicans; assay: Antifungal activity against Candida albicans 901 measured after 24 hrs by micro-broth dilution assay
[3] = test system: Candida albicans; assay: Antifungal activity against fluconazole-resistant Candida albicans 17 measured after 24 hrs by micro-broth dilution assay
[4] = test system: Nakaseomyces glabratus; assay: Antifungal activity against clinical isolate Candida glabrata measured after 24 hrs by micro-broth dilution assay
[5] = test system: [Candida] zeylanoides; assay: Antifungal activity against Candida zeylanoides CMGCC2.3739 measured after 24 hrs by micro-broth dilution assay; settings: Dujonia zeylanoides
[6] = test system: Cryptococcus neoformans; assay: Antifungal activity against Cryptococcus neoformans CGMCC2.3161 measured after 72 hrs by micro-broth dilution assay
[7] = test system: Candida albicans; assay: Antifungal activity against Candida albicans ATCC SC5314 measured after 24 hrs by micro-broth dilution assay
[8] = test system: Candida albicans; assay: Antifungal activity against fluconazole-resistant Candida albicans strain 904 measured after 24 hrs by micro-broth dilution assay
[9] = test system: Aspergillus fumigatus; assay: Antifungal activity against Aspergillus fumigatus CGMCC 3.7795 measured after 72 hrs by micro-broth dilution assay
[10] = test system: Candida parapsilosis; assay: Antifungal activity against Candida parapsilosis ATCC 22019 measured after 24 hrs by micro-broth dilution assay; settings: Lodderomyces parapsilosis
[11] = test system: Candida albicans; assay: Antifungal activity against Candida albicans CPCC400616 measured after 24 hrs by micro-broth dilution assay
[12] = test system: Candida albicans; assay: Antifungal activity against fluconazole-resistant Candida albicans CaR measured after 24 hrs by micro-broth dilution assay
[13] = test system: Candida albicans; assay: Antifungal activity against fluconazole-resistant Candida albicans 632 measured after 24 hrs by micro-broth dilution assay

| SMILES | MIC [1] [µg/mL] | MIC [2] [µg/mL] | MIC [3] [µg/mL] | MIC [4] [µg/mL] | MIC [5] [µg/mL] | MIC [6] [µg/mL] | MIC [7] [µg/mL] | MIC [8] [µg/mL] | MIC [9] [µg/mL] | MIC [10] [µg/mL] | MIC [11] [µg/mL] | MIC [12] [µg/mL] | MIC [13] [µg/mL] |
| --- | --- | --- | --- | --- | --- | --- | --- | --- | --- | --- | --- | --- | --- |
| Cc1cccc(C[Se]C(Cn2ccnc2)c2ccc(Cl)cc2Cl)c1 (stereo unspecified) | 4 (≈ 9.43 µM) | 2 (≈ 4.71 µM) | 4 (≈ 9.43 µM) | 0.5 (≈ 1.18 µM) | 16 (≈ 37.7 µM) | 0.25 (≈ 0.589 µM) | 0.03 (≈ 0.0707 µM) | 2 (≈ 4.71 µM) | 8 (≈ 18.9 µM) | 1 (≈ 2.36 µM) | 0.03 (≈ 0.0707 µM) | 4 (≈ 9.43 µM) | 2 (≈ 4.71 µM) |
| Cc1ccc(C[Se]C(Cn2ccnc2)c2ccc(Cl)cc2Cl)cc1 (stereo unspecified) | 4 (≈ 9.43 µM) | 64 (≈ 151 µM) | 32 (≈ 75.4 µM) | 1 (≈ 2.36 µM) | 16 (≈ 37.7 µM) | 0.25 (≈ 0.589 µM) | 0.13 (≈ 0.306 µM) | > 128 | 2 (≈ 4.71 µM) | 1 (≈ 2.36 µM) | 0.03 (≈ 0.0707 µM) | 16 (≈ 37.7 µM) | 128 (≈ 302 µM) |
| Fc1ccc(C(Cn2ccnc2)[Se]Cc2ccc(Cl)cc2)c(F)c1 (stereo unspecified) | 0.5 (≈ 1.21 µM) | 8 (≈ 19.4 µM) | 8 (≈ 19.4 µM) | 1 (≈ 2.43 µM) | 1 (≈ 2.43 µM) | 0.5 (≈ 1.21 µM) | 0.03 (≈ 0.0729 µM) | 2 (≈ 4.86 µM) | 1 (≈ 2.43 µM) | 0.13 (≈ 0.316 µM) | 0.5 (≈ 1.21 µM) | 16 (≈ 38.9 µM) | 64 (≈ 155 µM) |
| COc1cccc(C[Se]C(Cn2ccnc2)c2ccc(Cl)cc2Cl)c1 (stereo unspecified) | 1 (≈ 2.27 µM) | 1 (≈ 2.27 µM) | 4 (≈ 9.09 µM) | 0.25 (≈ 0.568 µM) | 1 (≈ 2.27 µM) | 0.13 (≈ 0.295 µM) | 0.06 (≈ 0.136 µM) | 1 (≈ 2.27 µM) | 2 (≈ 4.54 µM) | 0.13 (≈ 0.295 µM) | 0.06 (≈ 0.136 µM) | 2 (≈ 4.54 µM) | 2 (≈ 4.54 µM) |
| Fc1ccc(C(Cn2ccnc2)[Se]Cc2ccccc2Cl)c(F)c1 (stereo unspecified) | 0.25 (≈ 0.607 µM) | 1 (≈ 2.43 µM) | 1 (≈ 2.43 µM) | 1 (≈ 2.43 µM) | 0.25 (≈ 0.607 µM) | 0.5 (≈ 1.21 µM) | 0.01 (≈ 0.0243 µM) | 0.5 (≈ 1.21 µM) | 2 (≈ 4.86 µM) | 0.06 (≈ 0.146 µM) | 0.25 (≈ 0.607 µM) | 2 (≈ 4.86 µM) | 0.5 (≈ 1.21 µM) |
| Clc1ccc(C(Cn2ccnc2)[Se]Cc2ccccc2)c(Cl)c1 (stereo unspecified) | 0.5 (≈ 1.22 µM) | 1 (≈ 2.44 µM) | 4 (≈ 9.75 µM) | 0.5 (≈ 1.22 µM) | 0.5 (≈ 1.22 µM) | 0.5 (≈ 1.22 µM) | 0.02 (≈ 0.0488 µM) | 0.5 (≈ 1.22 µM) | 0.5 (≈ 1.22 µM) | 0.25 (≈ 0.609 µM) | 0.06 (≈ 0.146 µM) | 4 (≈ 9.75 µM) | 2 (≈ 4.88 µM) |
| COc1ccc(C[Se]C(Cn2ccnc2)c2ccc(Cl)cc2Cl)cc1 (stereo unspecified) | 8 (≈ 18.2 µM) | 16 (≈ 36.3 µM) | 16 (≈ 36.3 µM) | 0.5 (≈ 1.14 µM) | 8 (≈ 18.2 µM) | 0.25 (≈ 0.568 µM) | 0.13 (≈ 0.295 µM) | 128 (≈ 291 µM) | 1 (≈ 2.27 µM) | 0.5 (≈ 1.14 µM) | 0.13 (≈ 0.295 µM) | 32 (≈ 72.7 µM) | 128 (≈ 291 µM) |
| Fc1ccc(C[Se]C(Cn2ccnc2)c2ccc(Cl)cc2Cl)cc1 (stereo unspecified) | 1 (≈ 2.34 µM) | 32 (≈ 74.7 µM) | 4 (≈ 9.34 µM) | 0.13 (≈ 0.304 µM) | 4 (≈ 9.34 µM) | 0.25 (≈ 0.584 µM) | 0.03 (≈ 0.0701 µM) | 64 (≈ 149 µM) | 2 (≈ 4.67 µM) | 0.5 (≈ 1.17 µM) | 0.03 (≈ 0.0701 µM) | 16 (≈ 37.4 µM) | 128 (≈ 299 µM) |
| Cc1ccc(C[Se]C(Cn2ccnc2)c2ccc(F)cc2F)cc1C (stereo unspecified) | 8 (≈ 19.7 µM) | 128 (≈ 316 µM) | 64 (≈ 158 µM) | 1 (≈ 2.47 µM) | 1 (≈ 2.47 µM) | 0.5 (≈ 1.23 µM) | 0.13 (≈ 0.321 µM) | > 128 | 2 (≈ 4.93 µM) | 1 (≈ 2.47 µM) | 0.5 (≈ 1.23 µM) | 128 (≈ 316 µM) | > 128 |
| Fc1ccc(C(Cn2ccnc2)[Se]Cc2ccccc2)c(F)c1 (stereo unspecified) | 0.25 (≈ 0.663 µM) | 2 (≈ 5.3 µM) | 8 (≈ 21.2 µM) | 1 (≈ 2.65 µM) | 0.5 (≈ 1.33 µM) | 0.5 (≈ 1.33 µM) | 0.13 (≈ 0.345 µM) | 64 (≈ 170 µM) | 1 (≈ 2.65 µM) | 0.13 (≈ 0.345 µM) | 0.25 (≈ 0.663 µM) | 4 (≈ 10.6 µM) | 4 (≈ 10.6 µM) |
| Clc1ccc(C(Cn2ccnc2)[Se]Cc2ccc(Br)cc2)c(Cl)c1 (stereo unspecified) | 32 (≈ 65.4 µM) | 64 (≈ 131 µM) | 8 (≈ 16.4 µM) | 0.5 (≈ 1.02 µM) | 2 (≈ 4.09 µM) | 0.5 (≈ 1.02 µM) | 0.06 (≈ 0.123 µM) | 128 (≈ 262 µM) | 1 (≈ 2.04 µM) | 4 (≈ 8.18 µM) | 0.25 (≈ 0.511 µM) | 128 (≈ 262 µM) | > 128 |
| Fc1cccc(C[Se]C(Cn2ccnc2)c2ccc(Cl)cc2Cl)c1 (stereo unspecified) | 2 (≈ 4.67 µM) | 0.25 (≈ 0.584 µM) | 0.5 (≈ 1.17 µM) | 0.5 (≈ 1.17 µM) | 1 (≈ 2.34 µM) | 0.25 (≈ 0.584 µM) | 0.03 (≈ 0.0701 µM) | 0.25 (≈ 0.584 µM) | 2 (≈ 4.67 µM) | 0.02 (≈ 0.0467 µM) | 0.03 (≈ 0.0701 µM) | 1 (≈ 2.34 µM) | 1 (≈ 2.34 µM) |
